This is an account of results in PMC8881512 (Nature Communications, 2022).

Assay [1] deals with T1, PKA (Homo sapiens, UniProt P17612).
T1 construct: LATS1/LATS2 enzymes from Signalchem
Briefly: Kinome profiling. The assay is classed as biochemical. As to conditions: VT02956 (5 nM), read-out: % enzymatic activity relative to DMSO controls.

For assay [2], the system named is MDA-MB-231 cells. Briefly: Cell proliferation, MDA-MB-231. It is filed as cell-based. As to conditions: 0.5 µM or 2 µM VT02956 for 4 days; Supplementary Fig. 8e. The method, then:
(§1) Cell proliferation rates were determined by automated cell counter. In brief, cells were plated at density of 0.1 million cells per well in six-well plate. Cell numbers were counted by the indicated time point as stated in the figure legends.

Assay [3] concerns the target T2, CAMK2d (Homo sapiens, UniProt Q13557).
T2 construct: LATS1/LATS2 enzymes from Signalchem
Briefly: Kinome profiling. It is filed as biochemical. The note with it: VT02956 (5 nM), read-out: % enzymatic activity relative to DMSO controls.

The target in assay [4] is T3, AKT2 (Homo sapiens, UniProt P31751).
T3 construct: LATS1/LATS2 enzymes from Signalchem
Briefly: Kinome profiling. The assay is classed as biochemical. As to conditions: VT02956 (5 nM), read-out: % enzymatic activity relative to DMSO controls.

In assay [5] the target is T4, TXK (Homo sapiens, UniProt P42681).
T4 construct: LATS1/LATS2 enzymes from Signalchem
Kind of assay: Kinome profiling. It is filed as biochemical. The note with it: VT02956 (5 nM), read-out: % enzymatic activity relative to DMSO controls.

The target in assay [6] is T5, STK38/NDR1 (Homo sapiens, UniProt Q15208).
T5 construct: LATS1/LATS2 enzymes from Signalchem
Kind of assay: Kinome profiling. The assay is classed as biochemical. The note with it: VT02956 (5 nM), read-out: % enzymatic activity relative to DMSO controls.

In assay [7] the target is T6, KSR2 (Homo sapiens, UniProt Q6VAB6).
T6 construct: LATS1/LATS2 enzymes from Signalchem
Kind of assay: Kinome profiling. The assay is classed as biochemical. The note with it: VT02956 (5 nM), read-out: % enzymatic activity relative to DMSO controls.

Assay [8] deals with T7, PKN3/PRK3 (Homo sapiens, UniProt Q6P5Z2).
T7 construct: LATS1/LATS2 enzymes from Signalchem
Kind of assay: Kinome profiling. It is filed as biochemical. As to conditions: VT02956 (5 nM).

For assay [9], the system named is melanoma B16 cells. Briefly: Cell proliferation, B16. The assay is classed as cell-based. As to conditions: 0.5 µM or 2 µM VT02956 for 4 days; Supplementary Fig. 8f. The method, then:
as §1

Assay [10] has as its system Phospho-YAP (Ser127) in HEK293A cells. Briefly: Cellular Phospho-YAP HTRF assay, HEK293A. The assay is classed as cell-based. As to conditions: for YAP phosphorylation: 293A, Fig.5d. The method, then: Compound inhibition of […] YAP phosphorylation were performed based on commercial Phospho-YAP (Ser127) kit (Cisbio). In brief, HEK293A cells at 80%-100% confluence was rinsed with PBS, digested in 0.25% Trypsin-EDTA and centrifuged at 1000 × g for 3 min. The cell pellet was resuspended with appropriate volume of serum-free medium, counted using automated cell counter (Invitrogen), adjusted to a working density of 2.9 × 10^6/ml and dispensed into 384-well small volume white plate (Greiner) at 12 μl/well (3.5 × 10^4 cells) using Thermo Multidrop Combi microplate dispenser. At the time of detection, 36 nl DMSO contain 3-fold serial diluted compounds ranging from 10,000 to 4.6 nM were added into designed wells by Eco system and incubated at 37 °C for 120 min. Cell were lysed by adding 4 μl lysis buffer (4x), and incubated for 45 min at room temperature under shaking. HTRF reaction was performed by adding 4 μl of premixed phospho-YAP Cryptate antibody/Phospho-YAP d2 antibody solution prepared in the detection buffer and incubate at room temperature overnight. […] The compound inhibition was calculated by the formula, inhibition % = ([…]) × 100/ (HPE−ZPE). HPE represent 100% effect and ZPE is 0% effect. The data processing procedures were similar as in vitro LATS kinase inhibition assay.

Assay [11] concerns the target T8, RIPK2 (Homo sapiens, UniProt O43353).
T8 construct: LATS1/LATS2 enzymes from Signalchem
Briefly: Kinome profiling. It is filed as biochemical. The note with it: VT02956 (5 nM), read-out: % enzymatic activity relative to DMSO controls.

Assay [12] has as its target T9, CK2a2 (Homo sapiens, UniProt P19784).
T9 construct: LATS1/LATS2 enzymes from Signalchem
Briefly: Kinome profiling. It is filed as biochemical. As to conditions: VT02956 (5 nM), read-out: % enzymatic activity relative to DMSO controls.

Assay [13] deals with T10, FER (Homo sapiens, UniProt P16591).
T10 construct: LATS1/LATS2 enzymes from Signalchem
Briefly: Kinome profiling. The assay is classed as biochemical. The note with it: VT02956 (5 nM), read-out: % enzymatic activity relative to DMSO controls.

For assay [14], the target named is T11, LATS2 (Homo sapiens, UniProt Q9NRM7).
T11 construct: purchased Signalchem
T11 sequence (Q9NRM7 1-1088): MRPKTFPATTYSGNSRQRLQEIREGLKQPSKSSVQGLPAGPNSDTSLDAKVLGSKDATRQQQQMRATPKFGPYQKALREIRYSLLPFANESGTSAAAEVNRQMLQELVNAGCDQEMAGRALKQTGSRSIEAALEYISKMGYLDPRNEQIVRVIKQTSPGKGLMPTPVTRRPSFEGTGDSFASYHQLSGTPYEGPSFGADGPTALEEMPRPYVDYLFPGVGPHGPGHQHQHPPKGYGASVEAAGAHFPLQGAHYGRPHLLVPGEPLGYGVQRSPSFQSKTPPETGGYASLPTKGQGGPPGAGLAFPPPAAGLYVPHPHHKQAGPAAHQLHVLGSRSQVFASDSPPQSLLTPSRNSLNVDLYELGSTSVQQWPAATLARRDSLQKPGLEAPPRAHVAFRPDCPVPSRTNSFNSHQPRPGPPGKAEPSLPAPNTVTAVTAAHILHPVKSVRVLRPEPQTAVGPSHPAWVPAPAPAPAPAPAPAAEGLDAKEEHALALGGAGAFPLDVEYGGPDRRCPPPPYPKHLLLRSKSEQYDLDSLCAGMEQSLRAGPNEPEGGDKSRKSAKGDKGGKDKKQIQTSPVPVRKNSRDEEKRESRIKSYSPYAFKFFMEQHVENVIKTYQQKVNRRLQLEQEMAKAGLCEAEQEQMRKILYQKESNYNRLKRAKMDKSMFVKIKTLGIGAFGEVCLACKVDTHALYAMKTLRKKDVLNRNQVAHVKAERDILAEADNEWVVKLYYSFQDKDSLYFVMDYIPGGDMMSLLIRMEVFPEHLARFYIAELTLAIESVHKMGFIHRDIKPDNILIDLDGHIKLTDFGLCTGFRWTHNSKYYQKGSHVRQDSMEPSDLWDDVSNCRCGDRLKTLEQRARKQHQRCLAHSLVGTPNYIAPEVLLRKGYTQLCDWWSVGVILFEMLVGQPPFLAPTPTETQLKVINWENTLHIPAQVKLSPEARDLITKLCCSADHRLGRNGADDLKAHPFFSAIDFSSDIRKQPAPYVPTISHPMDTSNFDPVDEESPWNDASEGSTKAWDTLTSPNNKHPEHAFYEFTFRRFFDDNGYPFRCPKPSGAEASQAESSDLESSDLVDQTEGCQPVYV
Briefly: Kinome profiling. The assay is classed as biochemical. As to conditions: VT02956 (5 nM).

In assay [15] the target is T12, MUSK (Homo sapiens, UniProt O15146).
T12 construct: LATS1/LATS2 enzymes from Signalchem
Briefly: Kinome profiling. The assay is classed as biochemical. The note with it: VT02956 (5 nM), read-out: % enzymatic activity relative to DMSO controls.

In assay [16] the target is T13, MSK1/RPS6KA5 (Homo sapiens, UniProt O75582).
T13 construct: LATS1/LATS2 enzymes from Signalchem
Kind of assay: Kinome profiling. The note with it: VT02956 (5 nM), read-out: % enzymatic activity relative to DMSO controls. It is filed as biochemical.

In assay [17] the test system is T47D cells. Kind of assay: Cell proliferation by cell counting, T47D. The note with it: 0.5 µM or 2 µM, time course to 8 days; Supplementary Fig. 8c, d. The assay is classed as cell-based. The method, then: as §1

Several values for one entry are separate records, joined by “and”; a condition that tells them apart may be missing. Equal entries are not always repeated.

T13 sequence (O75582 whole entry): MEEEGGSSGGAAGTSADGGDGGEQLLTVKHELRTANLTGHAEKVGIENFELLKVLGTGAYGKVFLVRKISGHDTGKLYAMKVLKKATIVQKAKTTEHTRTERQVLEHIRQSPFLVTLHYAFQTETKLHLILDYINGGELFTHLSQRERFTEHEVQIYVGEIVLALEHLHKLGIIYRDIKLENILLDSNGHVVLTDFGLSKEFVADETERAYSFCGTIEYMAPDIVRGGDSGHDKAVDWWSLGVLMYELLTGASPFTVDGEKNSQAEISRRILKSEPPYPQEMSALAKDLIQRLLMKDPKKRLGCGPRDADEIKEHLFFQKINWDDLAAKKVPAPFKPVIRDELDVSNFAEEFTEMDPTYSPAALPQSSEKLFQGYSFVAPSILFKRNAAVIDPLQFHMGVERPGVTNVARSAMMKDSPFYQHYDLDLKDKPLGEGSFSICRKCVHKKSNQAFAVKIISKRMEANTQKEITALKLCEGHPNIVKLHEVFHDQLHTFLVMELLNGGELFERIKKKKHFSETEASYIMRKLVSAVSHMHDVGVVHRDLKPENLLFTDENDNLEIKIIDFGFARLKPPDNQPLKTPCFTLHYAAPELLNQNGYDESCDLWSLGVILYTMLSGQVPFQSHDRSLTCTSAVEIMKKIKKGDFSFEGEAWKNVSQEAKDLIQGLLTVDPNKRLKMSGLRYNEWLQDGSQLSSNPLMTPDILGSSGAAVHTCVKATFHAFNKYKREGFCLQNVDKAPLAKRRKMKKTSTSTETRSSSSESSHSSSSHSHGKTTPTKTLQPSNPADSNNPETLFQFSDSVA
T8 sequence (O43353 whole entry): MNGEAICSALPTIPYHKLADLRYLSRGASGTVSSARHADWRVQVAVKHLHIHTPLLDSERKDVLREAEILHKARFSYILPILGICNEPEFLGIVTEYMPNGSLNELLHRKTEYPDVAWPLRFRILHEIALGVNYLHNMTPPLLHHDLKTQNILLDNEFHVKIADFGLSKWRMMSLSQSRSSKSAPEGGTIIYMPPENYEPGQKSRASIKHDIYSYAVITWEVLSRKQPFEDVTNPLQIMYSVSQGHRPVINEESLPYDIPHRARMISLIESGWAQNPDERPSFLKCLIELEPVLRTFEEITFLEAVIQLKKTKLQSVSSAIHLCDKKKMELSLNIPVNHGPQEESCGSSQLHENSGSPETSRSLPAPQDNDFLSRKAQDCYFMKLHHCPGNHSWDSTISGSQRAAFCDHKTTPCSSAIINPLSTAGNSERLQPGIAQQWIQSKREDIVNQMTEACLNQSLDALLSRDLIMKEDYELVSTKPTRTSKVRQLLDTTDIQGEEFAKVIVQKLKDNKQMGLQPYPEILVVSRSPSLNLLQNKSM
T5 sequence (Q15208 whole entry): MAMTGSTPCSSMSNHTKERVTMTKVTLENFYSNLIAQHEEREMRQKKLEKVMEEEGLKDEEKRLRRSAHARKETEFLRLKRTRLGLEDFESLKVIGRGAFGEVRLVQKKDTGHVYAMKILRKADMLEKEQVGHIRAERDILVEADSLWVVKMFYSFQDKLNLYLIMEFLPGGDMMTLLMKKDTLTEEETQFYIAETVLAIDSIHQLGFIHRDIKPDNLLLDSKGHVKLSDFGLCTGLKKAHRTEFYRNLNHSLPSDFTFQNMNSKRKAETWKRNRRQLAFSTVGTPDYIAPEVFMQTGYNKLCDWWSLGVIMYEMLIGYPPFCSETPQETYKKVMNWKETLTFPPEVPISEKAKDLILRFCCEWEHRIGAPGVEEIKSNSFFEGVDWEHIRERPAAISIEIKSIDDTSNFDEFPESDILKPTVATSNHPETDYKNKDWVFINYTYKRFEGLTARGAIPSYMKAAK
T3 sequence (P31751 whole entry): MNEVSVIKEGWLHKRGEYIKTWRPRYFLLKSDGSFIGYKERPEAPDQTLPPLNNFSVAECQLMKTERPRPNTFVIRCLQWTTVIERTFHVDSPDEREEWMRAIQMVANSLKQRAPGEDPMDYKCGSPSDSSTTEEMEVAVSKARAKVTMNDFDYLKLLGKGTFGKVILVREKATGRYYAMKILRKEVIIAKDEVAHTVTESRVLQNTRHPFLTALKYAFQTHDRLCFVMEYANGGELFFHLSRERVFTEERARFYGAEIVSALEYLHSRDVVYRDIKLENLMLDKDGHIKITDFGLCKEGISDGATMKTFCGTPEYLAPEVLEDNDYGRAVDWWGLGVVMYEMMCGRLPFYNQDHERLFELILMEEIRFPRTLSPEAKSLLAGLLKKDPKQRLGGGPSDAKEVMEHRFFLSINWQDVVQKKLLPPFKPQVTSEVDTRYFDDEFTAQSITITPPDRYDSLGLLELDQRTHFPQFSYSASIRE
T12 sequence (O15146 24-869): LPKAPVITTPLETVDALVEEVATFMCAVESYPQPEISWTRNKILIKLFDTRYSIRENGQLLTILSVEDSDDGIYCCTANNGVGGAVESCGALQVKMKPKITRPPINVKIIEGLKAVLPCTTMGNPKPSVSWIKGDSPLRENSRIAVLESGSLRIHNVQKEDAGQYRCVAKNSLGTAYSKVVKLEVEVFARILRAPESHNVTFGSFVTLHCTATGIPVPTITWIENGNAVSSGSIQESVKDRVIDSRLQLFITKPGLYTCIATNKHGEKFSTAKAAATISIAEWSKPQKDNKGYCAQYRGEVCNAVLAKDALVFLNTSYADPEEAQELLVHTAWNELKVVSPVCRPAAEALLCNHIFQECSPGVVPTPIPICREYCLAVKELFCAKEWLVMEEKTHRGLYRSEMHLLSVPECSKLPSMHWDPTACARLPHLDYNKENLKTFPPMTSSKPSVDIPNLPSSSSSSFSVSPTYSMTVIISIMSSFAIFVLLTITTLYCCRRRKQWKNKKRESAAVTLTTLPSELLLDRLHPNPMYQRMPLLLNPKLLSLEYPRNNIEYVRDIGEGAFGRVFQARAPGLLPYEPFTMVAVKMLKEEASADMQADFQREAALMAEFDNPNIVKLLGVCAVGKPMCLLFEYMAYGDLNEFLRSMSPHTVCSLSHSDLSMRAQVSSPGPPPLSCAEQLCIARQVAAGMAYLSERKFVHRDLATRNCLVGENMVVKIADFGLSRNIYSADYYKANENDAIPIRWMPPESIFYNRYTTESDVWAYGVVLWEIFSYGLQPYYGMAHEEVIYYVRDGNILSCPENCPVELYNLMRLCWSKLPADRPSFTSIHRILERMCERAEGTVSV
T4 sequence (P42681 whole entry): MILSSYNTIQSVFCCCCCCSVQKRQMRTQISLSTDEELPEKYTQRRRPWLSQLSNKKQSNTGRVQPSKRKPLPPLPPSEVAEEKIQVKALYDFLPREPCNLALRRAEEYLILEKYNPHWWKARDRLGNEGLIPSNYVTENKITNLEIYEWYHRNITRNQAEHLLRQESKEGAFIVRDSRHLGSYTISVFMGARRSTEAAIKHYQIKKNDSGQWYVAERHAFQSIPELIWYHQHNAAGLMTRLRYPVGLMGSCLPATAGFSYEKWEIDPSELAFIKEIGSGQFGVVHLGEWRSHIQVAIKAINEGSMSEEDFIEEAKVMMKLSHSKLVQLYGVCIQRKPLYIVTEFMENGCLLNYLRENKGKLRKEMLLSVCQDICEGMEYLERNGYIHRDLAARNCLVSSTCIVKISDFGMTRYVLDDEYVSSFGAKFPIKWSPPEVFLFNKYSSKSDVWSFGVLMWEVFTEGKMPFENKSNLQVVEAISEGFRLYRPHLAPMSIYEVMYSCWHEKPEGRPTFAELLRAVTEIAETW
T9 sequence (P19784 whole entry): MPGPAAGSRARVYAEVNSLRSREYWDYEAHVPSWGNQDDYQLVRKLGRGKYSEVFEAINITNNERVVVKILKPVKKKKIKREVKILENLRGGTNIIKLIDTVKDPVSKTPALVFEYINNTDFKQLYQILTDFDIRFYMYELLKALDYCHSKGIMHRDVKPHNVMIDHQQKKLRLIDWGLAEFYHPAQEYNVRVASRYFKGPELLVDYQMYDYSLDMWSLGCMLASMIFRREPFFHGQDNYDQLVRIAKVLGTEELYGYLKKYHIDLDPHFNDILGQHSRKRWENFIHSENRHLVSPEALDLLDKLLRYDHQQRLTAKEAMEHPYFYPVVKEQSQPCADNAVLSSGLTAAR
T6 sequence (Q6VAB6 whole entry): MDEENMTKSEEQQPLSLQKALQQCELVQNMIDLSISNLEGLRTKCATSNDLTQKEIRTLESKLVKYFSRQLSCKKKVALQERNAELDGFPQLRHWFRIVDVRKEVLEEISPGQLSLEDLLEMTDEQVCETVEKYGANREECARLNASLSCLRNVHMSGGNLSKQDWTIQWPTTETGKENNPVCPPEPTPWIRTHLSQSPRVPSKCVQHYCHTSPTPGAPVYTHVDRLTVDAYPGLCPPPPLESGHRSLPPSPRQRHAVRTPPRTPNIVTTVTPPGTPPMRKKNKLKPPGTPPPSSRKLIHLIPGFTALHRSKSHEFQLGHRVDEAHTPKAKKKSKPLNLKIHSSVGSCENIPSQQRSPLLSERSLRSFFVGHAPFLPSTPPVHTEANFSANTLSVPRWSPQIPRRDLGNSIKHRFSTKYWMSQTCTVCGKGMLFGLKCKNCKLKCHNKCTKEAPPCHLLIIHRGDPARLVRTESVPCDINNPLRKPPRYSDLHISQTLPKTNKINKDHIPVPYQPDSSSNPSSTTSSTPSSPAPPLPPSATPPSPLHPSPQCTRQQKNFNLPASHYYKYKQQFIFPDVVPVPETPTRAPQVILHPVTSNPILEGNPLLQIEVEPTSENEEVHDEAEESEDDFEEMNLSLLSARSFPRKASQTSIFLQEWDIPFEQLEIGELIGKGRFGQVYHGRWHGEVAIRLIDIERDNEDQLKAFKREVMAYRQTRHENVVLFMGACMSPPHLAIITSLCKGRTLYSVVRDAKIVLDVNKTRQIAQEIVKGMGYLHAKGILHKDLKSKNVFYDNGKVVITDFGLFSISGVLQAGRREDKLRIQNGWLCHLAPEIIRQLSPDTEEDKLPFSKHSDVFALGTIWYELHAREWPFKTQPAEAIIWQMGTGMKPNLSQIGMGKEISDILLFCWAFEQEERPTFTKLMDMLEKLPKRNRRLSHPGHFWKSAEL

By IC50 is commonly meant the concentration needed to halve the response being measured. In the case of `NCC1CCN(c2nc(-c3ccncc3)nc3c(C#CCO)cccc23)CC1` [VT02956], the remaining activity at 0.005 µM in [1] is 68%; in assay [3], 77%; in assay [4], 85%; in [5], 83%; in [6] it was 16%; in [7], 83%. The remaining activity at 0.005 µM in [11] was 75%; in [12], 78%; in assay [13], 78%; in assay [15], 85%; in assay [16], 49%. For the same molecule, the “growth of ER negative breast cancer MDA-MB-231 cells” value in assay [2] was “had little effect”. In addition, the “% enzymatic activity relative to DMSO controls” value in assay [8] is reported as 64%; in assay [14] it was 34%. Moreover, the “growth of ER negative melanoma B16 cells” value in [9] was “had little effect”. The YAP phosphorylation was 88.3714 and 102.283 in assay [10] (Conc. 0.00457247 (µM)); 105.168 and 111.221 in assay [10] (Conc. 0.0137174 (µM)); 96.441 and 81.638 in assay [10] (Conc. 0.0411523 (µM)); 73.179 and 42.0107 in assay [10] (Conc. 0.123457 (µM)); 20.9423 and 23.4127 in [10] (Conc. 0.37037 (µM)); 9.018 and 5.767 in assay [10] (Conc. 1.11111 (µM)). In addition, the IC50 in assay [10] (HEK293-A, 2 h, HEK293A cells, 120 min, read-out: YAP phosphorylation IC50) was 160 nM. In addition, the T47D proliferation result in assay [17] was “inhibited the proliferation of MCF-7 and T47D cells”.
